The values below come from patent publication US20240327380A1, “BTK INHIBITORS” (BIOGEN MA INC., priority 2020, published 2024).

The target in assay [1] is T1, active BTK enzyme (Upstate 14-552) (Homo sapiens, UniProt Q06187).
T1 construct: purchased Upstate 14-552
Put plainly: In Vitro BTK Kinase Assay: Btk-PolyGAT-LS Assay. In kind it is biochemical. The settings on record: ATP 10 μM, polyGAT 100 nM, BTK 0.25 nM, 30 minutes, TRF readout. In a few lines:
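Active BTK (0.25 nM) phosphorylates fluorescein-polyGAT peptide (100 nM) with 10 µM ATP in Tris-HCl pH 7.5/MgCl2/DTT buffer, 30 min, EDTA stop. Phosphopeptide detected by TR-FRET with Tb-PY20 antibody after 45 min at room temperature; IC50 from four-parameter fit against DMSO and EDTA controls.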

For assay [2], the system named is CD69 expression on CD19+ B cells in human whole blood. Put plainly: In Vitro whole blood CD69 Assay. The conditions noted are these: B-cell; human heparinized whole blood, anti-human IgD stimulation overnight, percentage of CD19+ B cells expressing CD69, flow cytometry; read-out: IC50. It is filed as cell-based. The protocol: In Vitro whole blood CD69 Assay
Human heparinized venous blood from health donors was aliquoted into 96-well plate and “spiked” with serial dilutions of formula I compounds in DMSO or with DMSO without drug. The final concentration of DMSO in all wells was 0.1%. The plate was incubated at 37° C. for 30 min. Drug-containing samples were stimulated with […] mouse anti-human IgD-dextran (1A62) or […] polyclonal rabbit F(ab′)2 anti-human IgD. Phosphate-buffered saline (PBS) was added to the negative control unstimulated sample and the plates were incubated overnight (18 to 22 hours) at 37° C. Cells were stained with fluorochrome-conjugated anti-CD19 and anti-CD69 antibodies. Lyse/fix solution was used to remove red blood cells by hypotonic lysis and to fix the remaining cells, which were then analyzed by flow cytometry. CD19+ B cells were gated and analyzed for CD69 expression. The percentage of B cells expressing CD69 was plotted versus the log 10 of the concentration of the drug and the best-fit curves (variable Hill slope) were generated to obtain the IC50 value.

T1 sequence (Q06187 whole entry): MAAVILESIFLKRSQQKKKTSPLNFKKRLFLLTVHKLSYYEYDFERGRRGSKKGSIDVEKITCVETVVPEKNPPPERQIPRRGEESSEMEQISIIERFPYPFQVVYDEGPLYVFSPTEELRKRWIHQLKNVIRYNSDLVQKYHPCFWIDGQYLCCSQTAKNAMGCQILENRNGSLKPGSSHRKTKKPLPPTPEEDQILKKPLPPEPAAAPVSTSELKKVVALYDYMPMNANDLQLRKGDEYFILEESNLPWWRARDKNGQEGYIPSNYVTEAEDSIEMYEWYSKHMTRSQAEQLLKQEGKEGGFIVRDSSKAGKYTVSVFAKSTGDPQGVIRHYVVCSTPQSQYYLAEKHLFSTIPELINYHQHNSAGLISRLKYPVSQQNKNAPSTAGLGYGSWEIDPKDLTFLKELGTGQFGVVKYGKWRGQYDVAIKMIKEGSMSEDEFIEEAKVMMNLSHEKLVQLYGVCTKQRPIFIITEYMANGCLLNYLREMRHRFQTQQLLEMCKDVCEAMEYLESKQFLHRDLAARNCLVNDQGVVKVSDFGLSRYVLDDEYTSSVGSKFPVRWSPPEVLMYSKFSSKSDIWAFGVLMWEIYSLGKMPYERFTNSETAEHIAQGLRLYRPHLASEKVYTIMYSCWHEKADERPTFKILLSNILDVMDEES

Regarding `C=CC(=O)N(C)C1COCCN(c2cnccc2-c2ccc(CNC(=O)c3cn(C(C)(C)C)nn3)c(C)c2)C1` (centres unmarked) [Example 52, 1-(tert-butyl)-N-(2-methyl-4-(3-(6-(N-methylacrylamido)-1,4-oxazepan-4-yl)pyridin-4-yl)benzyl)-1H-1,2,3-triazole-4-carboxamide], the IC50 lay within 1 to 10 nM in assay [1] and 100 to 1000 nM in assay [2].

As to `C=CC(=O)N(C)[C@@H]1CCCN(c2cncc(F)c2-c2ccc(CNC(=O)c3cn(C(C)(C)C)nn3)c(C)c2)C1` [Example 56, 1-tert-butyl-N-[[4-[3-fluoro-5-[(3R)-3-[methyl(prop-2-enoyl)amino]-1-piperidyl]-4-pyridyl]-2-methyl-phenyl]methyl]triazole-4-carboxamide], the IC50 in assay [1] is at most 1 nM; in assay [2], 100 to 1000 nM.

On to `Cc1cc(-c2ccncc2N2CCN(C(=O)/C=C/CN(C)C)CC2)ccc1CNC(=O)c1noc(C(C)(C)C)n1` [Example 61, (E)-5-(tert-butyl)-N-(4-(3-(4-(4-(dimethylamino)but-2-enoyl)piperazin-1-yl)pyridin-4-yl)-2-methylbenzyl)-1,2,4-oxadiazole-3-carboxamide], for which the IC50 in assay [1] is at most 1 nM; in assay [2], under 100 nM.

Take `C=CC(=O)N1CCN(c2cnccc2-c2ccc(CNC(=O)c3noc(C(C)(C)C)n3)c(C)c2)CC1` [Example 63, N-(4-(3-(4-acryloylpiperazin-1-yl)pyridin-4-yl)-2-methylbenzyl)-5-(tert-butyl)-1,2,4-oxadiazole-3-carboxamide]: the IC50 is at most 1 nM in assay [1] and 100 to 1000 nM in assay [2].

With `Cc1cc(-c2c(C#N)cncc2N2CCN(C(=O)/C=C/CN(C)C)CC2)ccc1CNC(=O)c1noc(C(C)(C)C)n1` [Example 69, (E)-5-(tert-butyl)-N-(4-(3-cyano-5-(4-(4-(dimethylamino)but-2-enoyl)piperazin-1-yl)pyridin-4-yl)-2-methylbenzyl)-1,2,4-oxadiazole-3-carboxamide], the figures for the IC50 in assay [1] and in assay [2] were 1 to 10 nM and 100 to 1000 nM, respectively.

As to `Cc1cc(-c2ccncc2N2CCN(C(=O)/C=C/CN(C)C)CC2)ccc1CN(C)C(=O)c1noc(C(C)(C)C)n1` [Example 71, (E)-5-(tert-butyl)-N-(4-(3-(4-(4-(dimethylamino)but-2-enoyl)piperazin-1-yl)pyridin-4-yl)-2-methylbenzyl)-N-methyl-1,2,4-oxadiazole-3-carboxamide], the values for the IC50 in assay [1] and in assay [2] were 1 to 10 nM and 100 to 1000 nM, respectively.

With `Cc1cc(-c2ccncc2N2CCN(C(=O)/C=C/CN(C)C)CC2)ccc1CNC(=O)c1nc(C2(C)CC2)no1` [Example 73, (E)-N-(4-(3-(4-(4-(dimethylamino)but-2-enoyl)piperazin-1-yl)pyridin-4-yl)-2-methylbenzyl)-3-(1-methylcyclopropyl)-1,2,4-oxadiazole-5-carboxamide], the IC50 in assay [1] was at most 1 nM; in assay [2], 100 to 1000 nM.

Turning to `Cc1cc(-c2ncncc2N2CCN(C(=O)/C=C/CN(C)C)CC2)ccc1CNC(=O)c1noc(C(C)(C)C)n1` [Example 82, (E)-5-(tert-butyl)-N-(4-(5-(4-(4-(dimethylamino)but-2-enoyl)piperazin-1-yl)pyrimidin-4-yl)-2-methylbenzyl)-1,2,4-oxadiazole-3-carboxamide], the IC50 is at most 1 nM in assay [1] and under 100 nM in assay [2].

With `Cc1cc(-c2ncncc2N2CCN(C(=O)/C=C/CN(C)C)CC2)ccc1CNC(=O)c1nc(C2(C)CC2)no1` [Example 85, (E)-N-(4-(5-(4-(4-(dimethylamino)but-2-enoyl)piperazin-1-yl)pyrimidin-4-yl)-2-methylbenzyl)-3-(1-methylcyclopropyl)-1,2,4-oxadiazole-5-carboxamide], the IC50 in assay [1] was at most 1 nM; in assay [2], under 100 nM.

As to `Cc1cc(-c2ccncc2N2CCN(C(=O)/C=C/CN(C)C)CC2)ccc1[C@@H](C)NC(=O)c1noc(C(C)(C)C)n1` [Example 86, (R,E)-5-(tert-butyl)-N-(1-(4-(3-(4-(4-(dimethylamino)but-2-enoyl)piperazin-1-yl)pyridin-4-yl)-2-methylphenyl)ethyl)-1,2,4-oxadiazole-3-carboxamide], the IC50 in assay [1] was 1 to 10 nM; in assay [2] it was 100 to 1000 nM.

In the case of `CN(C)C/C=C/C(=O)N1CCN(c2cnccc2-c2ccc(CNC(=O)c3noc(C(C)(C)C)n3)c(C(F)(F)F)c2)CC1` [Example 90, (E)-5-(tert-butyl)-N-(4-(3-(4-(4-(dimethylamino)but-2-enoyl)piperazin-1-yl)pyridin-4-yl)-2-(trifluoromethyl)benzyl)-1,2,4-oxadiazole-3-carboxamide], the IC50 in assay [1] was at most 1 nM; in assay [2] it was under 100 nM.

As for `Cc1cc(-c2ccncc2N2CCN(C(=O)/C=C/CN(C)C)CC2)ccc1CNC(=O)c1nc(C2(CF)CC2)no1` [Example 94, (E)-N-(4-(3-(4-(4-(dimethylamino)but-2-enoyl)piperazin-1-yl)pyridin-4-yl)-2-methylbenzyl)-3-(1-(fluoromethyl)cyclopropyl)-1,2,4-oxadiazole-5-carboxamide], the IC50 was at most 1 nM in assay [1] and 100 to 1000 nM in assay [2].

Consider `Cc1cc(-c2ccncc2N2CCN(C(=O)/C=C/CN(C)C)CC2)ccc1CNC(=O)c1noc(C(C)(C)C)c1F` [Example 95, (E)-5-(tert-butyl)-N-(4-(3-(4-(4-(dimethylamino)but-2-enoyl)piperazin-1-yl)pyridin-4-yl)-2-methylbenzyl)-4-fluoroisoxazole-3-carboxamide], for which the values for the IC50 in assay [1] and in assay [2] were 1 to 10 nM and 100 to 1000 nM, respectively.

As usually defined, the IC50 is the concentration needed to halve the response being measured.
